Results as given in the supplement of paper PMC10307832.

Legend:
Assay in all cases: relative viability (nuclei count vs DMSO), 5 days (fraction); higher = more cells survive
[1] = compound: C#Cc1cccc(Nc2ncnc3cc(OC)c(OCCCCCCC(=O)NO)cc23)c1 [CUDC-101] + CCNC(=O)c1noc(-c2cc(C(C)C)c(O)cc2O)c1-c1ccc(CN2CCOCC2)cc1 [Luminespib] (partner 0.01 µM)
Outline: (§1)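 Five library-drug doses in √10 steps were combined with a fixed anchor-drug dose, or a single drug was given alone, by pin tool to lung cancer cell lines in 1536-well plates the day after seeding. Nuclei were stained and counted after 5 days. Relative viability is the nuclei count in treated wells over that in vehicle wells, taken as the median of duplicate plates.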

[2] = compound: C1=CC=C2C(=C1)N=C(S2)C(C#N)C3=NC(=NC=C3)NCCC4=CN=CC=C4 + CS(=O)(=O)N1CCN(Cc2cc3nc(-c4cccc5[nH]ncc45)nc(N4CCOCC4)c3s2)CC1 [Pictilisib] (partner 1 µM)
Outline: as §1

[3] = compound: COc1cc(N2CCC(N3CCN(C)CC3)CC2)ccc1Nc1ncc(Cl)c(Nc2ccccc2S(=O)(=O)C(C)C)n1 [NVP-TAE684] + Nc1nc2[nH]cc(CCc3ccc(C(=O)N[C@@H](CCC(=O)O)C(=O)O)cc3)c2c(=O)[nH]1 [Pemetrexed] (partner 0.2 µM)
Outline: as §1

[4] = compound: C1=CC=C2C(=C1)N=C(S2)C(C#N)C3=NC(=NC=C3)NCCC4=CN=CC=C4 + NC(=O)Nc1cc(-c2cccc(F)c2)sc1C(=O)N[C@H]1CCCNC1 [AZD7762] (partner 0.2 µM)
Outline: as §1

Cell Line | relative viability ([1]; first compound 0.01 µM) | relative viability ([1]; first compound 0.03162 µM) | relative viability ([1]; first compound 0.1 µM) | relative viability ([1]; first compound 0.3162 µM) | relative viability ([1]; first compound 1 µM) | relative viability ([2]; first compound 0.005 µM) | relative viability ([2]; first compound 0.01581 µM) | relative viability ([2]; first compound 0.05 µM) | relative viability ([2]; first compound 0.1581 µM) | relative viability ([2]; first compound 0.5 µM) | relative viability ([3]; first compound 0.2 µM) | relative viability ([3]; first compound 0.6325 µM) | relative viability ([3]; first compound 2 µM) | relative viability ([4]; first compound 0.005 µM) | relative viability ([4]; first compound 0.01581 µM) | relative viability ([4]; first compound 0.05 µM) | relative viability ([4]; first compound 0.1581 µM) | relative viability ([4]; first compound 0.5 µM)
LOU-NH91 | 0.395 | 0.216 | 0.334 | 0.385 | 0.316 | 0.51 | 0.515 | 0.477 | 0.533 | 0.489 | 0.364 | 0.349 | 0.437 | 0.687 | 0.758 | 0.734 | 0.798 | 0.724
COR-L23 | 0.801 | 0.734 | 0.658 | 0.632 | 0.353 | 0.531 | 0.792 | 0.725 | 0.952 | 0.762 | 0.205 | 0.203 | 0.197 | – | – | – | – | –
HCC-15 | 0.169 | 0.279 | 0.299 | 0.559 | 0.596 | 0.733 | 0.74 | 0.72 | 0.855 | 0.685 | 0.245 | 0.204 | 0.182 | 1.02 | 1.23 | 1.25 | 1.51 | 1.24
LCLC-103H | 0.975 | 0.931 | 0.943 | 0.92 | 0.754 | 0.493 | 0.446 | 0.498 | 0.707 | 0.681 | 0.473 | 0.48 | 0.478 | 0.849 | 0.784 | 0.804 | 0.929 | 0.779
HARA | 0.465 | 0.682 | 0.616 | 0.311 | 0.185 | 0.324 | 0.349 | 0.368 | 0.611 | 0.298 | 0.262 | 0.211 | 0.233 | 0.2 | 0.358 | 0.38 | 0.275 | 0.356
BEN | 0.534 | 0.402 | 0.467 | 0.302 | 0.37 | 0.59 | 0.509 | 0.584 | 0.576 | 0.561 | 0.843 | 0.728 | 0.682 | 0.759 | 0.609 | 0.689 | 0.85 | 0.774
LC-2-ad | 1.04 | 0.953 | 1.15 | 0.974 | 0.707 | 0.437 | 0.524 | 0.487 | 0.556 | 0.426 | 0.241 | 0.269 | 0.232 | 0.674 | 0.847 | 0.83 | 0.968 | 0.692
NCI-H1299 | – | – | – | – | – | 0.682 | 0.941 | 0.807 | 0.875 | 0.834 | – | – | – | – | – | – | – | –
NCI-H2009 | 1.07 | 0.904 | 1.06 | 1.02 | 0.928 | 0.853 | 0.644 | 0.845 | 1 | 0.835 | 1.06 | 1.01 | 0.894 | – | – | – | – | –
NCI-H1395 | 0.623 | 0.733 | 0.906 | 0.802 | 0.663 | 0.602 | – | 0.651 | 0.781 | 0.81 | 0.971 | 0.831 | 0.823 | 0.392 | – | 0.379 | 0.428 | 0.389
